From paper PMC11882969 (Nature Communications, 2025)
Where two headings read alike, the source gives them in different places.

How the values were obtained:
CB1 (rCB1) [1] = molecular target: T1, CB1 (rCB1) (Rattus norvegicus, UniProt P20272); assay: Single-point radioligand displacement screen; type: binding; conditions: 10 µM, 1 µM or 300 nM by cell colour (not visible)
hCB1 = hCB1 (Homo sapiens, UniProt P21554); assay: bioSensAll ebBRET signaling profiling, hCB1; type: cell-based; set-up: host or cells: HEK293SL cells, transient PEI transfection; conditions: for Barr2+GRK2 hCB1 response: Barr2+GRK2 biosensor; for Gi1 hCB1 / GoB hCB1: single replicate values, FigS6a; for EC50: hCB1 GoB; for Emax: normalized to CP-55,940
CB1 (rCB1) [2] = molecular target: T1, CB1 (rCB1); assay: Radioligand competition binding, [3H]-CP-55,940, rat brain membranes; conditions: rCB1

hCB1, sequence (P21554 whole entry): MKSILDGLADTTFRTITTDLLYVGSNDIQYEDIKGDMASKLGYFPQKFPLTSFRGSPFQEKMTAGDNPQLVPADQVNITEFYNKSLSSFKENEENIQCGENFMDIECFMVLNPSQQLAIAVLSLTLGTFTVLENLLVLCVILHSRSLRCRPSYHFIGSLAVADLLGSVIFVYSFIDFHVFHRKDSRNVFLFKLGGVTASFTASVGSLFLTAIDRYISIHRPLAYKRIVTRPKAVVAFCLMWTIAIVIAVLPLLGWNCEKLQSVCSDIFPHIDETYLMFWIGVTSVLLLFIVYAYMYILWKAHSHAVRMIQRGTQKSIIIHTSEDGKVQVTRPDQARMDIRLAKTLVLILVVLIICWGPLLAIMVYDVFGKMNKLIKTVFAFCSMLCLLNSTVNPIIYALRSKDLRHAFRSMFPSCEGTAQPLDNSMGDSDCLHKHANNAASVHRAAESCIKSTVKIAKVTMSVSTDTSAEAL
T1 sequence (P20272 whole entry): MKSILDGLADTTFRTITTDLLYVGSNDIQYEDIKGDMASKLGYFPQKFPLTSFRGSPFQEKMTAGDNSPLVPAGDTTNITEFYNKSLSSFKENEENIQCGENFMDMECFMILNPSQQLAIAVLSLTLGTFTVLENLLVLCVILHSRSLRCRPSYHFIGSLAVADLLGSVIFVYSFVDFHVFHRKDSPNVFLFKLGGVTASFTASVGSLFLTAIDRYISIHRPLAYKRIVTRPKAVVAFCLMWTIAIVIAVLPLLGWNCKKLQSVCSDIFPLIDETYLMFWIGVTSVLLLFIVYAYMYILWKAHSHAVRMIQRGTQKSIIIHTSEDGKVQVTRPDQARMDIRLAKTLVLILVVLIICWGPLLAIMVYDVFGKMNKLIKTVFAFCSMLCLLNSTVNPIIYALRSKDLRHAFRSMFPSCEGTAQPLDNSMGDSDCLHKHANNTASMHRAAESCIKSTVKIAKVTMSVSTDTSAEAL

Cn1nc(-c2nnc(C(C)(C)Oc3ccc(C(F)(F)F)cc3)o2)c2ccccc2c1=O [‘2153]
% 1H-CP-55,940 displacement (mean) from single point screen (CB1 (rCB1) [1]): 89.82%
Barr2+GRK2 hCB1 response (hCB1; Log [Compound] (M) -4.22186): 52.3115
Barr2+GRK2 hCB1 response (hCB1; Log [Compound] (M) -4.63927): 1.898
Barr2+GRK2 hCB1 response (hCB1; Log [Compound] (M) -5.05788): -31.9237
Barr2+GRK2 hCB1 response (hCB1; Log [Compound] (M) -5.47381): -49.7918
Barr2+GRK2 hCB1 response (hCB1; Log [Compound] (M) -5.89285): -32.2428
Barr2+GRK2 hCB1 response (hCB1; Log [Compound] (M) -6.31878): -30.3284
Barr2+GRK2 hCB1 response (hCB1; Log [Compound] (M) -6.72585): -23.6278
Barr2+GRK2 hCB1 response (hCB1; Log [Compound] (M) -7.14267): -46.282
Barr2+GRK2 hCB1 response (hCB1; Log [Compound] (M) -7.55284): -43.4104
Barr2+GRK2 hCB1 response (hCB1; Log [Compound] (M) -8): -60.3212
Barr2+GRK2 hCB1 response (hCB1; Log [Compound] (M) -8.22186): 12.7465
Barr2+GRK2 hCB1 response (hCB1; Log [Compound] (M) -8.39794): -37.9861
Barr2+GRK2 hCB1 response (hCB1; Log [Compound] (M) -8.68787): -0.01644
Barr2+GRK2 hCB1 response (hCB1; Log [Compound] (M) -9.15521): -27.1376
Barr2+GRK2 hCB1 response (hCB1; Log [Compound] (M) -9.61989): -19.4799
Barr2+GRK2 hCB1 response (hCB1; Log [Compound] (M) -10.0969): -46.6011
Barr2+GRK2 hCB1 response (hCB1; Log [Compound] (M) -10.5529): -22.3515
Barr2+GRK2 hCB1 response (hCB1; Log [Compound] (M) -11.0177): -18.8417
Barr2+GRK2 hCB1 response (hCB1; Log [Compound] (M) -11.4949): -32.5619
Barr2+GRK2 hCB1 response (hCB1; Log [Compound] (M) -11.9208): -20.4371
Barr2+GRK2 hCB1 response (hCB1; Log [Compound] (M) -12.3979): -30.0093
Barr2+GRK2 hCB1 response (hCB1; Log [Compound] (M) -12.8861): -33.2
Barr2+GRK2 hCB1 response (hCB1; Log [Compound] (M) -13.3979): 30.2955
Gi1 hCB1 (hCB1; Log [Compound] (M) -4.22186): 75.7197
GoB hCB1 (hCB1; Log [Compound] (M) -4.22186): 87.0618
Gi1 hCB1 (hCB1; Log [Compound] (M) -4.63927): 62.7492
GoB hCB1 (hCB1; Log [Compound] (M) -4.63927): 68.3981
Gi1 hCB1 (hCB1; Log [Compound] (M) -5.05788): 53.1046
GoB hCB1 (hCB1; Log [Compound] (M) -5.05788): 59.4743
Gi1 hCB1 (hCB1; Log [Compound] (M) -5.47381): 46.6906
GoB hCB1 (hCB1; Log [Compound] (M) -5.47381): 51.6096
Gi1 hCB1 (hCB1; Log [Compound] (M) -5.89285): 39.3106
GoB hCB1 (hCB1; Log [Compound] (M) -5.89285): 42.3906
Gi1 hCB1 (hCB1; Log [Compound] (M) -6.31878): 39.2789
GoB hCB1 (hCB1; Log [Compound] (M) -6.31878): 35.0814
Gi1 hCB1 (hCB1; Log [Compound] (M) -6.72585): 25.5166
GoB hCB1 (hCB1; Log [Compound] (M) -6.72585): 29.2133
Gi1 hCB1 (hCB1; Log [Compound] (M) -7.14267): 15.7294
GoB hCB1 (hCB1; Log [Compound] (M) -7.14267): 18.1713
Gi1 hCB1 (hCB1; Log [Compound] (M) -7.55284): 6.592
GoB hCB1 (hCB1; Log [Compound] (M) -7.55284): 8.536
Gi1 hCB1 (hCB1; Log [Compound] (M) -8): 0.6052
GoB hCB1 (hCB1; Log [Compound] (M) -8): 0.9487
Gi1 hCB1 (hCB1; Log [Compound] (M) -8.22186): 7.605
GoB hCB1 (hCB1; Log [Compound] (M) -8.22186): 6.383
Gi1 hCB1 (hCB1; Log [Compound] (M) -8.39794): -1.77
GoB hCB1 (hCB1; Log [Compound] (M) -8.39794): -8.426
Gi1 hCB1 (hCB1; Log [Compound] (M) -8.68787): -5.112
GoB hCB1 (hCB1; Log [Compound] (M) -8.68787): -5.249
Gi1 hCB1 (hCB1; Log [Compound] (M) -9.15521): -4.764
GoB hCB1 (hCB1; Log [Compound] (M) -9.15521): -4.208
Gi1 hCB1 (hCB1; Log [Compound] (M) -9.61989): -4.051
GoB hCB1 (hCB1; Log [Compound] (M) -9.61989): -5.197
Gi1 hCB1 (hCB1; Log [Compound] (M) -10.0969): -5.445
GoB hCB1 (hCB1; Log [Compound] (M) -10.0969): -5.371
Gi1 hCB1 (hCB1; Log [Compound] (M) -10.5529): -5.27
GoB hCB1 (hCB1; Log [Compound] (M) -10.5529): -5.926
Gi1 hCB1 (hCB1; Log [Compound] (M) -11.0177): -5.413
GoB hCB1 (hCB1; Log [Compound] (M) -11.0177): -5.284
Gi1 hCB1 (hCB1; Log [Compound] (M) -11.4949): -5.698
GoB hCB1 (hCB1; Log [Compound] (M) -11.4949): -6.413
Gi1 hCB1 (hCB1; Log [Compound] (M) -11.9208): -5.872
GoB hCB1 (hCB1; Log [Compound] (M) -11.9208): -5.041
Gi1 hCB1 (hCB1; Log [Compound] (M) -12.3979): -4.415
GoB hCB1 (hCB1; Log [Compound] (M) -12.3979): -7.09
Gi1 hCB1 (hCB1; Log [Compound] (M) -12.8861): -6.854
GoB hCB1 (hCB1; Log [Compound] (M) -12.8861): -5.666
Gi1 hCB1 (hCB1; Log [Compound] (M) -13): -4.779
GoB hCB1 (hCB1; Log [Compound] (M) -13): -5.6139
Gi1 hCB1 (hCB1; Log [Compound] (M) cell empty): -2.087
GoB hCB1 (hCB1; Log [Compound] (M) cell empty): -1.829
pEC50 [95% CI] (hCB1; hCB1 Gi1): 6.0 [5.2 – 6.4]
EC50 (hCB1): 2 µM
EC50 (hCB1; read-out: EC50 [95% CI]): 2.06 µM
Emax (hCB1; read-out: Emax [95% CI], hCB1 Gi1): 89%
Emax (hCB1; read-out: Emax [95% CI], hCB1 GoB): 109%
pKi [95% CI] (CB1 (rCB1) [2]): 6.79 [6.5 – 7.0]
